Experimental data reported in PubChem BioAssay AID1963421 (Molecular Pharmacology Branch, DTP, NCI, 2024).

System: 519858-162-T-J1-PDC complex spheroid growth, % test/control
Assay: Anticancer human tumor 519858-162-T-J1-PDC patient-derived colon adenocarcinoma cell line growth inhibition [Asc]
Settings: for IC50: curve of first compound; for viability, T/C: stronger effect = lower value
In short: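 Complex solid-tumor spheroids incorporating human endothelial and mesenchymal stem cells received single agents or combinations over half-log dilution ranges anchored to clinical Cmax.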

[1] = second compound 0.00316 µM, first compound 0.0316 µM
[2] = second compound 0.00316 µM, first compound 0.1 µM
[3] = second compound 0.00316 µM, first compound 0.316 µM
[4] = second compound 0.00316 µM, first compound 1 µM
[5] = second compound 0.00316 µM, first compound 3.16 µM
[6] = second compound 0.00316 µM, first compound 10 µM
[7] = second compound 0.01 µM, first compound 0.0316 µM
[8] = second compound 0.01 µM, first compound 0.1 µM
[9] = second compound 0.01 µM, first compound 0.316 µM
[10] = second compound 0.01 µM, first compound 1 µM
[11] = second compound 0.01 µM, first compound 3.16 µM
[12] = second compound 0.01 µM, first compound 10 µM
[13] = second compound 0.0316 µM, first compound 0.0316 µM
[14] = second compound 0.0316 µM, first compound 0.1 µM
[15] = second compound 0.0316 µM, first compound 0.316 µM
[16] = second compound 0.0316 µM, first compound 1 µM
[17] = second compound 0.0316 µM, first compound 3.16 µM
[18] = second compound 0.0316 µM, first compound 10 µM
[19] = second compound 0.1 µM, first compound 0.0316 µM
[20] = second compound 0.1 µM, first compound 0.1 µM
[21] = second compound 0.1 µM, first compound 0.316 µM
[22] = second compound 0.1 µM, first compound 1 µM
[23] = second compound 0.1 µM, first compound 3.16 µM
[24] = second compound 0.1 µM, first compound 10 µM
[25] = second compound 0.316 µM, first compound 0.0316 µM
[26] = second compound 0.316 µM, first compound 0.1 µM
[27] = second compound 0.316 µM, first compound 0.316 µM
[28] = second compound 0.316 µM, first compound 1 µM
[29] = second compound 0.316 µM, first compound 3.16 µM
[30] = second compound 0.316 µM, first compound 10 µM
[31] = second compound 1 µM, first compound 0.0316 µM
[32] = second compound 1 µM, first compound 0.1 µM
[33] = second compound 1 µM, first compound 0.316 µM
[34] = second compound 1 µM, first compound 1 µM
[35] = second compound 1 µM, first compound 3.16 µM
[36] = second compound 1 µM, first compound 10 µM
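Further: seven day drug exposure begun three days after spheroid seeding.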
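Wherever viability, T/C is given: 100% = DMSO vehicle wells and lower values mean less viable spheroid.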

In the case of `C#Cc1c(F)ccc2cc(O)cc(-c3ncc4c(N5CC6CCC(C5)N6)nc(OCC56CCCN5CC(F)C6)nc4c3F)c12` (stereo unspecified) + CNC(C)C(=O)NC1CN(S(=O)(=O)c2cccc(S(=O)(=O)N3CCC4CCC(C(=O)NC(c5ccccc5)c5ccccc5)N4C(=O)C(NC(=O)C(C)NC)C3)c2)CCC2CCC(C(=O)NC(c3ccccc3)c3ccccc3)N2C1=O, the IC50 (second compound 0.00316 µM) is reported as > 10 µM, the IC50 (second compound 0.01 µM) is reported as > 10 µM and the IC50 (second compound 0.0316 µM) is reported as > 10 µM. For the same compound, the IC50 (second compound 0.1 µM) was > 10 µM, the IC50 (second compound 0.316 µM) was > 10 µM and the IC50 (second compound 1 µM) was > 10 µM. The viability, T/C [1] was 138%, the viability, T/C [2] was 111% and the viability, T/C [3] was 99.4%. The viability, T/C [4] was 100%, the viability, T/C [5] was 82.1% and the viability, T/C [6] was 72.1%. It also gave a viability, T/C [7] of 97.8%, a viability, T/C [8] of 91.2% and a viability, T/C [9] of 93.6%. It also gave a viability, T/C [10] of 86.1%, a viability, T/C [11] of 81.2% and a viability, T/C [12] of 77.3%. It also gave a viability, T/C [13] of 96.5%, a viability, T/C [14] of 82.4% and a viability, T/C [15] of 86.3%. It also gave a viability, T/C [16] of 102%, a viability, T/C [17] of 75.2% and a viability, T/C [18] of 105%. The viability, T/C [19] was 123%, the viability, T/C [20] was 123% and the viability, T/C [21] was 117%. The viability, T/C [22] was 97.6%, the viability, T/C [23] was 88.1% and the viability, T/C [24] was 94.9%. It also gave a viability, T/C [25] of 78.8%, a viability, T/C [26] of 97.6% and a viability, T/C [27] of 111%. The viability, T/C [28] was 115%, the viability, T/C [29] was 87.8% and the viability, T/C [30] was 92.2%. For the same compound, the viability, T/C [31] was 86.5%, the viability, T/C [32] was 93.2% and the viability, T/C [33] was 92.2%. The viability, T/C [34] was 77.9%, the viability, T/C [35] was 112% and the viability, T/C [36] was 106%.
In the case of `C=C(F)C(=O)N1CCN(c2nc(OCC3CCCN3C)nc3c2CCN(c2cccc4cccc(Cl)c24)C3)CC1CC#N` (stereo unspecified) + CNC(C)C(=O)NC1CN(S(=O)(=O)c2cccc(S(=O)(=O)N3CCC4CCC(C(=O)NC(c5ccccc5)c5ccccc5)N4C(=O)C(NC(=O)C(C)NC)C3)c2)CCC2CCC(C(=O)NC(c3ccccc3)c3ccccc3)N2C1=O, the IC50 (second compound 0.00316 µM) is reported as > 10 µM, the IC50 (second compound 0.01 µM) is reported as > 10 µM and the IC50 (second compound 0.0316 µM) is reported as > 10 µM. For the same compound, the IC50 (second compound 0.1 µM) was > 10 µM, the IC50 (second compound 0.316 µM) was > 10 µM and the IC50 (second compound 1 µM) was > 10 µM. It also gave a viability, T/C [1] of 102%, a viability, T/C [2] of 86.8% and a viability, T/C [3] of 102%. For the same compound, the viability, T/C [4] was 92.7%, the viability, T/C [5] was 94.8% and the viability, T/C [6] was 113%. It also gave a viability, T/C [7] of 104%, a viability, T/C [8] of 83.7% and a viability, T/C [9] of 91.2%. The viability, T/C [10] was 82%, the viability, T/C [11] was 96.7% and the viability, T/C [12] was 108%. The viability, T/C [13] was 94.7%, the viability, T/C [14] was 83.7% and the viability, T/C [15] was 86.3%. It also gave a viability, T/C [16] of 93.4%, a viability, T/C [17] of 95.7% and a viability, T/C [18] of 107%. The viability, T/C [19] was 93.1%, the viability, T/C [20] was 91.2% and the viability, T/C [21] was 93.3%. For the same compound, the viability, T/C [22] was 89.2%, the viability, T/C [23] was 86.8% and the viability, T/C [24] was 116%. The viability, T/C [25] was 88.2%, the viability, T/C [26] was 96.9% and the viability, T/C [27] was 106%. For the same compound, the viability, T/C [28] was 92.9%, the viability, T/C [29] was 82.2% and the viability, T/C [30] was 107%. The viability, T/C [31] was 93.6%, the viability, T/C [32] was 101% and the viability, T/C [33] was 103%. It also gave a viability, T/C [34] of 92.6%, a viability, T/C [35] of 91.2% and a viability, T/C [36] of 112%.
In the case of `CCN1C(C(=O)NC23CCC(C(=O)O)(CC2)CC3)C(c2cccc(Cl)c2F)C2(C(=O)Nc3cc(Cl)ccc32)C12CCCCC2` (stereo unspecified) + CNC(C)C(=O)NC1CN(S(=O)(=O)c2cccc(S(=O)(=O)N3CCC4CCC(C(=O)NC(c5ccccc5)c5ccccc5)N4C(=O)C(NC(=O)C(C)NC)C3)c2)CCC2CCC(C(=O)NC(c3ccccc3)c3ccccc3)N2C1=O, the IC50 (second compound 0.00316 µM) is reported as > 3 µM, the IC50 (second compound 0.01 µM) is reported as > 3 µM and the IC50 (second compound 0.0316 µM) is reported as > 3 µM. The IC50 (second compound 0.1 µM) was > 3 µM, the IC50 (second compound 0.316 µM) was > 3 µM and the IC50 (second compound 1 µM) was > 3 µM. For the same compound, the viability, T/C (second compound 0.00316 µM, first compound 0.00949 µM) was 92%, the viability, T/C (second compound 0.00316 µM, first compound 0.03 µM) was 118% and the viability, T/C (second compound 0.00316 µM, first compound 0.0949 µM) was 111%. For the same compound, the viability, T/C (second compound 0.00316 µM, first compound 0.3 µM) was 83.8%, the viability, T/C (second compound 0.00316 µM, first compound 0.949 µM) was 108% and the viability, T/C (second compound 0.00316 µM, first compound 3 µM) was 65.8%. The viability, T/C (second compound 0.01 µM, first compound 0.00949 µM) was 101%, the viability, T/C (second compound 0.01 µM, first compound 0.03 µM) was 106% and the viability, T/C (second compound 0.01 µM, first compound 0.0949 µM) was 112%. For the same compound, the viability, T/C (second compound 0.01 µM, first compound 0.3 µM) was 80.1%, the viability, T/C (second compound 0.01 µM, first compound 0.949 µM) was 89.2% and the viability, T/C (second compound 0.01 µM, first compound 3 µM) was 82.6%. The viability, T/C (second compound 0.0316 µM, first compound 0.00949 µM) was 96.4%, the viability, T/C (second compound 0.0316 µM, first compound 0.03 µM) was 73.9% and the viability, T/C (second compound 0.0316 µM, first compound 0.0949 µM) was 122%. For the same compound, the viability, T/C (second compound 0.0316 µM, first compound 0.3 µM) was 94%, the viability, T/C (second compound 0.0316 µM, first compound 0.949 µM) was 83.5% and the viability, T/C (second compound 0.0316 µM, first compound 3 µM) was 82.1%. It also gave a viability, T/C (second compound 0.1 µM, first compound 0.00949 µM) of 94.7%, a viability, T/C (second compound 0.1 µM, first compound 0.03 µM) of 73.8% and a viability, T/C (second compound 0.1 µM, first compound 0.0949 µM) of 82.1%. The viability, T/C (second compound 0.1 µM, first compound 0.3 µM) was 93.2%, the viability, T/C (second compound 0.1 µM, first compound 0.949 µM) was 80.1% and the viability, T/C (second compound 0.1 µM, first compound 3 µM) was 89.6%. It also gave a viability, T/C (second compound 0.316 µM, first compound 0.00949 µM) of 96%, a viability, T/C (second compound 0.316 µM, first compound 0.03 µM) of 115% and a viability, T/C (second compound 0.316 µM, first compound 0.0949 µM) of 92.8%. It also gave a viability, T/C (second compound 0.316 µM, first compound 0.3 µM) of 79.6%, a viability, T/C (second compound 0.316 µM, first compound 0.949 µM) of 81.3% and a viability, T/C (second compound 0.316 µM, first compound 3 µM) of 105%. It also gave a viability, T/C (second compound 1 µM, first compound 0.00949 µM) of 78.9%, a viability, T/C (second compound 1 µM, first compound 0.03 µM) of 84.7% and a viability, T/C (second compound 1 µM, first compound 0.0949 µM) of 66.1%. It also gave a viability, T/C (second compound 1 µM, first compound 0.3 µM) of 112%, a viability, T/C (second compound 1 µM, first compound 0.949 µM) of 82.2% and a viability, T/C (second compound 1 µM, first compound 3 µM) of 83.1%.
